Data reported in US20040110763A1, “Pyrazolopyridine compound and pharmaceutical use thereof” (priority 2000, published 2004).

SMILES	melting point
CC(C)n1nc(-c2c(-c3ccccc3)nn3ccc(OCCN4CC4)cc23)ccc1=O	159 to 160 °C
COc1ccn2nc(-c3ccccc3)c(-c3ccc(=O)[nH]n3)c2c1 [Example 1, 5-methoxy-3-(3-oxo-2,3-dihydropyridazin-6-yl)-2-phenylpyrazolo[1,5-a]-pyridine]	245.5 to 247 °C
CC(C)n1nc(-c2c(-c3ccccc3)nn3ccc(OCCN4CCOCC4)cc23)ccc1=O [Example 6, 5-[2-(4-morpholinyl)ethoxy]-3-(3-oxo-2-isopropyl-2,3-dihydropyridazin-6-yl)-2-phenylpyrazolo[1,5-a]pyridine]	160 to 162 °C
COc1ccc(S(=O)(=O)Oc2ccn3nc(-c4ccccc4)c(-c4ccc(=O)n(C(C)C)n4)c3c2)cc1 [Example 7, 5-(4-methoxyphenylsulfonyl)oxy-3-(3-oxo-2-isopropyl-2,3-dihydropyridazin-6-yl)-2-phenylpyrazolo[1,5-a]pyridine]	155 to 157 °C
CC(C)n1nc(-c2c(-c3ccccc3)nn3ccc(OCCc4ccccc4)cc23)ccc1=O [Example 9, 5-Phenethyloxy-3-(3-oxo-2-isopropyl-2,3-dihydropyridazin-6-yl)-2-phenylpyrazolo[1,5-a]pyridine]	154.5 to 155.5 °C
CC(C)Oc1ccn2nc(-c3ccccc3)c(-c3ccc(=O)n(C(C)C)n3)c2c1 [Example 10, 5-Isopropoxy-3-(3-oxo-2-isopropyl-2,3-dihydropyridazin-6-yl)-2-phenylpyrazolo[1,5-a]pyridine]	162 to 163 °C
CC(C)n1nc(-c2c(-c3ccccc3)nn3ccc(OCc4ccccn4)cc23)ccc1=O [Example 12, 5-(2-Pyridinylmethoxy)-3-(3-oxo-2-isopropyl-2,3-dihydropyridazin-6-yl)-2-phenylpyrazolo[1,5-a]pyridine]	150 to 151 °C
CC(C)n1nc(-c2c(-c3ccccc3)nn3ccc(OCCCN(C)C)cc23)ccc1=O [Example 15, 5-(3-Dimethylaminopropoxy)-3-(3-oxo-2-isopropyl-2,3-dihydropyridazin-6-yl)-2-phenylpyrazolo[1,5-a]pyridine]	125 to 126 °C
CC(C)n1nc(-c2c(-c3ccccc3)nn3ccc(OCCN4CCCCC4)cc23)ccc1=O [Example 16, 5-[2-(1-Piperidinyl)ethoxy]-3-(3-oxo-2-isopropyl-2,3-dihydropyridazin-6-yl)-2-phenylpyrazolo[1,5-a]pyridine]	144 to 144.5 °C
CC(C)n1nc(-c2c(-c3ccccc3)nn3ccc(OCCN4CCCC4)cc23)ccc1=O [Example 17, 5-[2-(1-Pyrrolidinyl)ethoxy]-3-(3-oxo-2-isopropyl-2,3-dihydropyridazin-6-yl)-2-phenylpyrazolo[1,5-a]pyridine]	149 to 150 °C
CC(C)n1nc(-c2c(-c3ccccc3)nn3ccc(OCCN4[C@H](C)COC[C@@H]4C)cc23)ccc1=O [Example 18, 5-[2-{(3R,5S)-3,5-Dimethyl-4-morpholinyl}ethoxy]-3-(3-oxo-2-isopropyl-2,3-dihydropyridazin-6-yl)-2-phenylpyrazolo[1,5-a]pyridine]	145 to 146 °C
CC(C)n1nc(-c2c(-c3ccccc3)nn3ccc(OCc4ccncc4)cc23)ccc1=O [Example 19, 5-(4-Pyridinylmethoxy)-3-(3-oxo-2-isopropyl-2,3-dihydropyridazin-6-yl)-2-phenylpyrazolo[1,5-a]pyridine]	218 to 219.5 °C
CC(C)n1nc(-c2c(-c3ccccc3)nn3ccc(OCc4cccnc4)cc23)ccc1=O [Example 20, 5-(3-Pyridinylmethoxy)-3-(3-oxo-2-isopropyl-2,3-dihydropyridazin-6-yl)-2-phenylpyrazolo[1,5-a]pyridine]	145 to 146 °C
CCCOc1ccn2nc(-c3ccccc3)c(-c3ccc(=O)n(C(C)C)n3)c2c1 [Example 21, 5-Propoxy-3-(3-oxo-2-isopropyl-2,3-dihydropyridazin-6-yl)-2-phenylpyrazolo[1,5-a]pyridine]	161.5 to 162.5 °C
CC(C)CCOc1ccn2nc(-c3ccccc3)c(-c3ccc(=O)n(C(C)C)n3)c2c1 [Example 22, 5-Isopentyloxy-3-(3-oxo-2-isopropyl-2,3-dihydropyridazin-6-yl)-2-phenylpyrazolo[1,5-a]pyridine]	163 to 163.5 °C
CC(C)n1nc(-c2c(-c3ccccc3)nn3ccc(OCCC4CCCCC4)cc23)ccc1=O [Example 23, 5-(2-Cyclohexylethoxy)-3-(3-oxo-2-isopropyl-2,3-dihydropyridazin-6-yl)-2-phenylpyrazolo[1,5-a]pyridine]	146 to 147 °C
CC(C)n1nc(-c2c(-c3ccccc3)nn3ccc(OCCN4C[C@@H](C)O[C@@H](C)C4)cc23)ccc1=O [Example 24, 5-[2-{(2R,6S)-2,6-Dimethyl-4-morpholinyl}ethoxy]-3-(3-oxo-2-isopropyl-2,3-dihydropyridazin-6-yl)-2-phenylpyrazolo[1,5-a]pyridine]	157.5 to 158 °C

SMILES	melting point
CCN(CC)CCOc1ccn2nc(-c3ccccc3)c(-c3ccc(=O)n(C(C)C)n3)c2c1 [Example 25, 5-[2-(Diethylamino)ethoxy]-3-(3-oxo-2-isopropyl-2,3-dihydropyridazin-6-yl)-2-phenylpyrazolo[1,5-a]pyridine]	92.5 to 94.5 °C
CCOc1ccn2nc(-c3ccccc3)c(-c3ccc(=O)n(C(C)C)n3)c2c1 [Example 26, 5-Ethoxy-3-(3-oxo-2-isopropyl-2,3-dihydropyridazin-6-yl)-2-phenylpyrazolo[1,5-a]pyridine]	181 to 182 °C
CC(=O)COc1ccn2nc(-c3ccccc3)c(-c3ccc(=O)n(C(C)C)n3)c2c1 [Example 27, 5-(2-Oxopropoxy)-3-(3-oxo-2-isopropyl-2,3-dihydropyridazin-6-yl)-2-phenylpyrazolo[1,5-a]pyridine]	172.5 to 173.5 °C
CC(C)n1nc(-c2c(-c3ccccc3)nn3ccc(OCCN4CCCC4=O)cc23)ccc1=O [Example 28, 5-[2-(2-Oxo-1-pyrrolidinyl)ethoxy]-3-(3-oxo-2-isopropyl-2,3-dihydropyridazin-6-yl)-2-phenylpyrazolo [1,5-a]pyridine]	162 to 163 °C
CC(C)n1nc(-c2c(-c3ccccc3)nn3ccc(OC4CCN(C(=O)OC(C)(C)C)CC4)cc23)ccc1=O [Example 29, tert-Butyl 4-{[3-(3-oxo-2-isopropyl-2,3-dihydropyridazin-6-yl)-2-phenylpyrazolo[1,5-a]pyridin-5-yl]oxy}-1-piperidinecarboxylate]	176 to 179 °C
CC(C)n1nc(-c2c(-c3ccccc3)nn3ccc(OCC(=O)OCc4ccccc4)cc23)ccc1=O [Example 32, Benzyl {[3-(3-oxo-2-isopropyl-2,3-dihydropyridazin-6-yl)-2-phenylpyrazolo[1,5-a]pyridin-5-yl]oxy}acetate]	174 to 174.5 °C
CC(C)n1nc(-c2c(-c3ccccc3)nn3ccc(OCCC4CCCC4)cc23)ccc1=O [Example 33, 5-(2-cyclopentylethoxy)-3-(3-oxo-2-isopropyl-2,3-dihydropyridazin-6-yl)-2-phenylpyrazolo[1,5-a]pyridine]	159.5 to 160.5 °C
CC(C)n1nc(-c2c(-c3ccccc3)nn3ccc(Oc4ccncc4)cc23)ccc1=O [Example 35, 5-(4-Pyridinyloxy)-3-(3-oxo-2-isopropyl-2,3-dihydropyridazin-6-yl)-2-phenylpyrazolo[1,5-a]pyridine]	218.5 to 219.5 °C
CC(=O)Nc1cccc(Oc2ccn3nc(-c4ccccc4)c(-c4ccc(=O)n(C(C)C)n4)c3c2)c1 [Example 36, N-(3-{[3-(3-oxo-2-isopropyl-2,3-dihydropyridazin-6-yl)-2-phenylpyrazolo[1,5-a]pyridin-5-yl]oxy}phenyl)acetamide]	177.5 to 178.5 °C
CC(C)n1nc(-c2c(-c3ccccc3)nn3ccc(Oc4ccccc4)cc23)ccc1=O [Example 37, 5-Phenoxy-3-(3-oxo-2-isopropyl-2,3-dihydropyridazin-6-yl)-2-phenylpyrazolo[1,5-a]pyridine]	181 to 182 °C
CCOC(=O)COc1ccn2nc(-c3ccccc3)c(-c3ccc(=O)n(C(C)C)n3)c2c1 [Example 38, Ethyl {[3-(3-oxo-2-isopropyl-2,3-dihydropyridazin-6-yl)-2-phenylpyrazolo[1,5-a]pyridin-5-yl]oxy}acetate]	193 to 194 °C
CC(C)n1nc(-c2c(-c3ccccc3)nn3ccc(OCC(=O)N(C)C)cc23)ccc1=O [Example 40, 2-{[3-(3-oxo-2-isopropyl-2,3-dihydropyridazin-6-yl)-2-phenylpyrazolo[1,5-a]pyridin-5-yl]oxy}-N,N-dimethylacetamide]	189 to 190 °C
CCN(CC)C(=O)COc1ccn2nc(-c3ccccc3)c(-c3ccc(=O)n(C(C)C)n3)c2c1 [Example 41, N,N-Diethyl-2-{[3-(3-oxo-2-isopropyl-2,3-dihydropyridazin-6-yl)-2-phenylpyrazolo[1,5-a]pyridin-5-yl]oxy}acetamide]	125 to 126.5 °C
CC(C)n1nc(-c2c(-c3ccccc3)nn3ccc(OCC(=O)Nc4ccccc4)cc23)ccc1=O [Example 44, 2-{[3-(3-Oxo-2-isopropyl-2,3-dihydropyridazin-6-yl)-2-phenylpyrazolo[1,5-a]pyridin-5-yl]oxy}-N-phenylacetamide]	208 to 209 °C
CC(C)CNC(=O)COc1ccn2nc(-c3ccccc3)c(-c3ccc(=O)n(C(C)C)n3)c2c1 [Example 45, N-Isobutyl-2-{[3-(3-oxo-2-isopropyl-2,3-dihydropyridazin-6-yl)-2-phenylpyrazolo [1,5-a]pyridin-5-yl]oxy}acetamide]	167.5 to 168.5 °C
CC(C)n1nc(-c2c(-c3ccccc3)nn3ccc(OC4CCOCC4)cc23)ccc1=O [Example 46, 5-(Tetrahydropyran-4-yl)oxy-3-(3-oxo-2-isopropyl-2,3-dihydropyridazin-6-yl)-2-phenylpyrazolo[1,5-a]pyridine]	210.5 to 211 °C
COc1ccc(Oc2ccn3nc(-c4ccccc4)c(-c4ccc(=O)n(C(C)C)n4)c3c2)nc1 [Example 47, 5-[(5-Methoxy-2-pyridinyl)oxy]-3-(3-oxo-2-isopropyl-2,3-dihydropyridazin-6-yl)-2-phenylpyrazolo[1,5-a]pyridine]	148 to 150 °C
